Data as given in patent publication US10478421B1, “Sortilin binding compounds, formulations, and uses thereof” (University of Florida, priority 2016, dated 2019).
pKd: −log10 of the molar value.

Experiments:
hsortilin [1] = biological target: T1, hsortilin (Homo sapiens, UniProt Q99523); assay: Surface plasmon resonance on hsortilin immobilized on CM7 chips (Example 2); format: binding
T1 construct: Human sortilin (hsortilin) (Ser78-Asn755) with C-terminal 6-His tag; purchased R&D Systems, Inc. (Minneapolis, Minn.)
T1 sequence (Q99523 78-755): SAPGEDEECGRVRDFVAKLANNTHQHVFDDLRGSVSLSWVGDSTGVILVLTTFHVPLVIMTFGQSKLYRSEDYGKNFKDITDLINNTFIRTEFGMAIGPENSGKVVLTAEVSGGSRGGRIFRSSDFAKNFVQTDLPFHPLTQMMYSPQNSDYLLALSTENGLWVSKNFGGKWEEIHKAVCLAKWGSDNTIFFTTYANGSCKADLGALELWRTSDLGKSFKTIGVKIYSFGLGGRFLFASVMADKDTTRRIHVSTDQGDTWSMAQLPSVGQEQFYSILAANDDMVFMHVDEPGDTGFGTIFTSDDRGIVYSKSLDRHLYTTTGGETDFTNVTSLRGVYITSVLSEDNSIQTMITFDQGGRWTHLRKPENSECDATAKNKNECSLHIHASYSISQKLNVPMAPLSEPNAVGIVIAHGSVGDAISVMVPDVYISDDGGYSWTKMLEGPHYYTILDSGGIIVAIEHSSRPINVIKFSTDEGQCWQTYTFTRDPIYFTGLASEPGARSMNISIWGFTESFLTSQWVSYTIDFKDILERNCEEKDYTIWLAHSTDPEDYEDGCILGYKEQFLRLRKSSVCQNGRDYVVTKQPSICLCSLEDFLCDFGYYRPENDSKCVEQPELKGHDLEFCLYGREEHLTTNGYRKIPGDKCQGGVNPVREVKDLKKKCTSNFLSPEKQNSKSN
Experimental: Surface plasmon resonance (SPR) measurements were performed on a Biacore T200 instrument equipped with two separate CM7 sensor chips, one with about 20,000 response units (RU) and another with about 27,000 RU of hsortilin covalently immobilized. […] For all other SPR injections, regeneration consisted of injections of running buffer alone. GE BIAcore T200 evaluation software version 3.0 (BIAevaluate) was used to analyze and export results. […] PIP3 containing nanodiscs were flowed at 2:1 dilutions to obtain kinetic data fitted using about 27,000 RU CM7 surface. Kinetic fit generated with BIAevaluate and local Rmax using Langmuir 1:1 binding model exported from BIAevaluate to Microsoft Excel 2016 with fit indicated by the black line.

McArdle rat hepatocytes = assay: VLDL-apo E secretion by McArdle rat hepatocytes (slot blotting); format: cell-based; conditions: 0.1-25 μM, 14-18 h
Experimental: McArdle rat hepatocytes were incubated with five media concentrations 0 (no cpd), 1 (0.1 μM), 2 (1 μM), 3 (10 μM) and 4 (25 μM) of cpd984 (FIG. 7A), cpd541 (FIG. 7B), or with a combination of both compounds (FIG. 7C) at indicated concentrations. Hepatocytes were incubated overnight (14-18 h) and media were collected and VLDL-B100 and VLDL-apo E were detected by slot blotting as described above. An anti-rat apoE antibody was used for measurement of VLDL-apo E secretion. Results are the average of triplicate analysis in one study.

hsortilin [2] = biological target: T2, hsortilin (Homo sapiens, UniProt Q99523); assay: SPR binding of 541 and 984 to hsortilin (Example 4)
T2 sequence (Q99523 78-831): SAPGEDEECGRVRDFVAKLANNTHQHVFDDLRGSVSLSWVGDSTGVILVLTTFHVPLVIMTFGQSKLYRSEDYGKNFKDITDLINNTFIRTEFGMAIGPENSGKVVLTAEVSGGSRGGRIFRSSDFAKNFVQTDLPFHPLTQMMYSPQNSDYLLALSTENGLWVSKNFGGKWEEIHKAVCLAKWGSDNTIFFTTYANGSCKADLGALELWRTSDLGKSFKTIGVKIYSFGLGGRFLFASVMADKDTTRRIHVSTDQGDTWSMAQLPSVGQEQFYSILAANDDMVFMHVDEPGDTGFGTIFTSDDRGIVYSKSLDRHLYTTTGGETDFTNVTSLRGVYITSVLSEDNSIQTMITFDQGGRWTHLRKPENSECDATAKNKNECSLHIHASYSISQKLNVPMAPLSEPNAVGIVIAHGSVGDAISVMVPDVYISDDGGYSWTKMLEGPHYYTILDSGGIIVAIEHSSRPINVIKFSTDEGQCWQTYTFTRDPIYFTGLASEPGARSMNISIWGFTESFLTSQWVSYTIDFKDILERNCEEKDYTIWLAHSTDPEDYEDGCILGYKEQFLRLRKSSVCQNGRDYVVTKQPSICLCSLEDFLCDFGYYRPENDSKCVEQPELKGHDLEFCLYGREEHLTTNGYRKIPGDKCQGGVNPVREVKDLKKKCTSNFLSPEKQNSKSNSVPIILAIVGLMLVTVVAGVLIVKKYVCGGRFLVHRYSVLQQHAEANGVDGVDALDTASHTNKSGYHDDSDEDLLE
Experimental: Due to inherent fluorescence of 541 small molecule, thermophoresis was performed in two different buffer conditions (PBS n=3 and MST n=2) and at two sets of concentration ranges. […] SPR indicates a high and low affinity binding site of cpd984 to human sortilin of hsortilin with Kd of about 200 μM and about 20 nM.

effect on NT binding to hsortilin by SPR (hsortilin [1])	pKd (hsortilin [2]; two trials)	increase of binding of C-term NT (SITE 1) to hsortilin when incubated with 984 (hsortilin [1]) [fold]	pKd (hsortilin [2]; high affinity binding site)	pKd (hsortilin [2]; low affinity binding site)	SMILES	effect on VLDL-apoE secretion (McArdle rat hepatocytes)
competes for NT binding	5.12	–	–	–	CC(NC(=O)c1ccccc1NCC(=O)O)c1ccccc1 (centres unmarked) [cpd541]	decreases
enhances NT binding	–	100	~7.70	~3.70	CN1CCC[C@H]1C(=O)Nc1cccc(NC(=O)CCc2ccccc2)c1 [cpd984, (2S)-1-methyl-N-{3-[(3-phenylpropanoyl)-amino]phenyl} pyrrolidine-2-carboxamide]	increases
